Test results from patent US5750496A, “Method of controlling cryptosporidium infectons using protease inhibitors” (priority 1996, dated 1998).
Starred links: 1 amine or outer side, 2 acyl side, 3 side chain; linkers in the order of their positions; H or OH if unused. Residues, ends and D or L forms follow the SMILES beside them. *: point of attachment. MeOSuc = COC(=O)CCC(=O)*; CO = O=C([*:1])[*:2]; CH2Cl = ClC*

Key:
C. parvum = experiment: Anticryptosporidial effect in BFTE cell culture inoculated with C. parvum oocysts, parasites enumerated 24 hours post-inoculation; type: cell-based, Cryptosporidium parvum (bovine isolate); conditions: for Control Percent Survival: 24 hours post-inoculation; for Lowest concentrations with significant reduction (P<0.001) in parasite numbers: concentrations as low as, P<0.001 vs infection control; for Intact (i.e. unexcysted) oocysts in treated BFTE cell monolayers during microscopic enumeration: predominantly associated with concentrations exceeding 100 μg/ml
Protocol: C. parvum (bovine isolate) oocysts used in this study were originally donated by the U.S. Department of Agriculture, Ames, Iowa. The oocysts were isolated from calf manure, preserved in 2.5% potassium dichromate, and used within 3 months of purification. Oocysts were decontaminated by suspension in 20% (vol/vol) 1.05% sodium hypochlorite on ice for 20 minutes. Oocysts were then washed three times in Hanks' balanced salt solution ("HIBSS") and once in RPMI 1640 (available from Sigma, St. Louis, Mo.). Release of sporozoites was achieved by incubating oocysts in an excystation solution consisting of 0.25% (wt/vol) trypsin (available from Sigma, St. Louis, Mo.) and 0.75% (wt/vol) taurodeoxycholic acid (available from Sigma) in HBSS. The resulting suspension was incubated at 37° C. for 45 minutes and microscopically observed to confirm sporozoite release. Sporozoites were completely separated from intact oocysts and oocyst walls by passage through sterile polycarbonate filters (3 micron pore size, available from Millipore Corp., Bedford, Mass.) twice prior to inoculation of bovine fallopian tube epithelial ("BFTE") cell monolayers.
Primary BFTE cell cultures were prepared from bovine fallopian tubes (FT). Fat was trimmed from the serosal surfaces, mucus was gently squeezed from the lumens, and FT were decontaminated by being submerged in 70% ethanol for 30 seconds. The FT were then transferred to sterile culture petri dishes containing HBSS and washed twice. The BFTE cells were harvested either by flushing the FT with HBSS, using a 10 ml syringe equipped with a mouse feeding needle, or by opening the FT lengthwise with scissors and scraping the mucosal surfaces. The BFTE cells were subsequently washed in HBSS by centrifugation at 200×g (force of gravity) for 10 minutes, planted in 75-cm^2 flasks containing RPMI 1640 and cultured in a 5% CO2 incubator at 37° C. for 72 to 120 hours. When the cell lines reached confluency, they were trypsinized, split, and planted onto cover slips positioned on the bottoms of individual wells in 24-well tissue culture plates. When cells reached 80% confluency, they were inoculated with either 10^5 oocysts or 4×10^5 sporozoites per well. Plates were then maintained at 37° C. in a candle jar environment (17% O2, 3% CO2, 80% N2). Growth medium was changed in each well every 72 hours. In wells inoculated with oocysts, the medium was first changed at 24 hours to remove any unexcysted oocysts.
Coverslips were removed at 5, 24, 48, 72, 96, and 120 hours from the inoculated wells containing monolayers of BFTE cells. The coverslips were washed in RPMI 1640, fixed in 100% methanol for 10 minutes, stained with Giemsa stain for 1 hour, and washed three times with double-distilled water (ddH2 O). Coverslips were then mounted on glass slides and examined under oil immersion (1000X), using bright-field microscopy. Parasites were enumerated by counting all developmental stages of C. parvum present in a single scan (67 fields) through the center of each coverslip. The data were statistically compared for significance, using analysis of variance (Fischer's protected least-significant-difference test using a "[…]" statistical analysis application developed by Abacus Concepts, Inc., Berkeley, Calif.).
The anticryptosporidial potential of the protease inhibitor AAT was evaluated in a BFTE cell culture system inoculated with C. parvum oocysts in accordance with the methods detailed in Example I. […] At 24 hours post-inoculation, the BFTE cells were rinsed with RPMI medium, fixed in methanol, and stained with Giemsa. Parasites were enumerated in cell monolayers by brightfield microscopy. Results, as set out in Table 1, represent the mean number of parasites counted per treatment group expressed as a percent, plus or minus the standard deviation, of the mean number of parasites counted in the infection control group.

BFTE cells = experiment: Cytotoxicity for BFTE cells at the concentrations evaluated; type: cell-based, bovine; conditions: at the concentrations evaluated (5-1000 μg/ml)
Protocol: Primary BFTE cell cultures were prepared from bovine fallopian tubes (FT). Fat was trimmed from the serosal surfaces, mucus was gently squeezed from the lumens, and FT were decontaminated by being submerged in 70% ethanol for 30 seconds. The FT were then transferred to sterile culture petri dishes containing HBSS and washed twice. The BFTE cells were harvested either by flushing the FT with HBSS, using a 10 ml syringe equipped with a mouse feeding needle, or by opening the FT lengthwise with scissors and scraping the mucosal surfaces. The BFTE cells were subsequently washed in HBSS by centrifugation at 200×g (force of gravity) for 10 minutes, planted in 75-cm^2 flasks containing RPMI 1640 and cultured in a 5% CO2 incubator at 37° C. for 72 to 120 hours. […]
The anticryptosporidial potential of the protease inhibitor AAT was evaluated in a BFTE cell culture system inoculated with C. parvum oocysts in accordance with the methods detailed in Example I. AAT concentrations of 5, 10, 50 100, and 500 micrograms per milliliter ("μg/ml") in RPMI medium were mixed with C. parvum oocysts and used to inoculate BFTE cell monolayers. […] Results, as set out in Table 1, represent the mean number of parasites counted per treatment group expressed as a percent, plus or minus the standard deviation, of the mean number of parasites counted in the infection control group.

[1] = 5 μg/ml, mean parasites as percent of infection control +/- SD
[2] = 10 μg/ml, mean parasites as percent of infection control +/- SD
[3] = 50 μg/ml, mean parasites as percent of infection control +/- SD
[4] = 100 μg/ml, mean parasites as percent of infection control +/- SD
[5] = 500 μg/ml, mean parasites as percent of infection control +/- SD
[6] = 1000 μg/ml, mean parasites as percent of infection control +/- SD

CC(C)[C@H](NC(=O)[C@H](CCCNC(=N)N)NC(=O)N[C@@H](Cc1ccccc1)C(=O)O)C(=O)N[C@H](C=O)CCCNC(=N)N [ANTIPAIN, antipain] ({Phe-CO}-Arg-Val-Arg-aldehyde)
Control Percent Survival (C. parvum; [1]): 67.7 +/- 7.2%
Control Percent Survival (C. parvum; [2]): 53.1 +/- 5.8%
Control Percent Survival (C. parvum; [3]): 42.1 +/- 6.1%
Control Percent Survival (C. parvum; [4]): 20.9 +/- 2.2%
Control Percent Survival (C. parvum; [5]): 15.6 +/- 1.4%
Control Percent Survival (C. parvum; [6]): 6.6 +/- 1.4%
Lowest concentrations with significant reduction (P<0.001) in parasite numbers (C. parvum): 5 to 10 µg/mL
Intact (i.e. unexcysted) oocysts in treated BFTE cell monolayers during microscopic enumeration (C. parvum): frequently observed

CC(=O)N[C@@H](CC(C)C)C(=O)N[C@@H](CC(C)C)C(=O)N[C@H](C=O)CCCNC(=N)N [Leupeptin, leupeptin]
Control Percent Survival (C. parvum; [1]): 89.1 +/- 5.4%
Number of parasites vs infection control (P<0.01) (C. parvum; 10 μg/ml and 50 μg/ml): significantly reduced
Control Percent Survival (C. parvum; [2]): 64.8 +/- 12.0%
Control Percent Survival (C. parvum; [3]): 58.7 +/- 11.2%
Control Percent Survival (C. parvum; [4]): 51.9 +/- 4.6%
Control Percent Survival (C. parvum; [5]): 43.4 +/- 6.6%

COC(=O)CCC(=O)N[C@@H](C)C(=O)N[C@@H](C)C(=O)N1CCC[C@H]1C(=O)N[C@H](C(=O)CCl)C(C)C [MAAPVCK, methoxysuccinyl-ala-ala-pro-valine chloromethylketone] (MeOSuc-AAPV-CH2Cl)
Control Percent Survival (C. parvum; [1]): 89.1 +/- 5.4%
Control Percent Survival (C. parvum; [2]): 64.8 +/- 12.0%
Control Percent Survival (C. parvum; [3]): 58.7 +/- 11.2%
Control Percent Survival (C. parvum; [4]): 51.9 +/- 4.6%
Control Percent Survival (C. parvum; [5]): 43.4 +/- 6.6%
Number of parasites vs infection control (P<0.01) (C. parvum; 500 μg/ml): significantly reduced

O=S(=O)(F)Cc1ccccc1 [PMSF, phenylmethylsulfonyl flouride]
Control Percent Survival (C. parvum; 1 mM, percent of infection control +/- SD): 68.9 +/- 5.2%
Control Percent Survival (C. parvum; 2 mM, percent of infection control +/- SD): 55.9 +/- 4.7%
Control Percent Survival (C. parvum; 3 mM, percent of infection control +/- SD): 40.0 +/- 8.3%
Number of parasites vs infection control (P<0.001) (C. parvum; 3 mM, P<0.001): significantly reduced

alpha-1-antitrypsin [AAT]
Cytotoxicity for BFTE cells (BFTE cells): no evidence of cytotoxicity
Control Percent Survival (C. parvum; [1]): 49.1 +/- 3.8%
Control Percent Survival (C. parvum; [2]): 43.9 +/- 4.2%
Control Percent Survival (C. parvum; [3]): 42.7 +/- 1.6%
Control Percent Survival (C. parvum; [4]): 30.4 +/- 1.9%
Control Percent Survival (C. parvum; [5]): 14.7 +/- 6.3%
Control Percent Survival (C. parvum; [6]): 1.8 +/- 0.4%
Lowest concentrations with significant reduction (P<0.001) in parasite numbers (C. parvum): 5 to 10 µg/mL
Intact (i.e. unexcysted) oocysts in treated BFTE cell monolayers during microscopic enumeration (C. parvum): frequently observed

aprotinin
Control Percent Survival (C. parvum; [1]): 83.9 +/- 6.6%
Control Percent Survival (C. parvum; [2]): 54.2 +/- 6.0%
Control Percent Survival (C. parvum; [3]): 36.1 +/- 4.7%
Control Percent Survival (C. parvum; [4]): 16.8 +/- 5.1%
Control Percent Survival (C. parvum; [5]): 10.9 +/- 4.7%
Control Percent Survival (C. parvum; [6]): 9.4 +/- 1.8%
Lowest concentrations with significant reduction (P<0.001) in parasite numbers (C. parvum): 5 to 10 µg/mL
Intact (i.e. unexcysted) oocysts in treated BFTE cell monolayers during microscopic enumeration (C. parvum): frequently observed

B1: soybean trypsin inhibitor (protein, UniProt P01070 25-205, looked up)
Trypsin inhibitor A: DFVLDNEGNPLENGGTYYILSDITAFGGIRAAPTGNERCPLTVVQSRNELDKGIGTIISSPYRIRFIAEGHPLSLKFDSFAVIMLCVGIPTEWSVVEDLPEGPAVKIGENKDAMDGWFRLERVSDDEFNNYKLVFCPQQAEDDKCGDIGISIDHDDGTRRLVVSKNKPLVVQFQKLDKESL
Control Percent Survival (C. parvum; [1]): 89.1 +/- 5.4%
Control Percent Survival (C. parvum; [2]): 64.8 +/- 12.0%
Number of parasites vs infection control (P<0.01) (C. parvum; 50 μg/ml and 100 μg/ml): significantly reduced
Control Percent Survival (C. parvum; [3]): 58.7 +/- 11.2%
Control Percent Survival (C. parvum; [4]): 51.9 +/- 4.6%
Control Percent Survival (C. parvum; [5]): 43.4 +/- 6.6%
